Experimental data from patent US10829501B2 (BRISTOL-MYERS SQUIBB COMPANY, priority 2016, dated 2020).
Counter-ions that a name gives are not always drawn.
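Note: rho kinase reaction read by separating phosphorylated from unphosphorylated peptide on chip, with inhibition of kinase activity computed per concentration across a dose-response series.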

These compounds were tested against ROCK2 (Homo sapiens, UniProt O75116) (assay: ROCK2 kinase inhibition assay (LABCHIP 3000 Reader, FITC peptide substrate)). Settings: not given.
Sequence of ROCK2 (O75116 whole entry, species assumed): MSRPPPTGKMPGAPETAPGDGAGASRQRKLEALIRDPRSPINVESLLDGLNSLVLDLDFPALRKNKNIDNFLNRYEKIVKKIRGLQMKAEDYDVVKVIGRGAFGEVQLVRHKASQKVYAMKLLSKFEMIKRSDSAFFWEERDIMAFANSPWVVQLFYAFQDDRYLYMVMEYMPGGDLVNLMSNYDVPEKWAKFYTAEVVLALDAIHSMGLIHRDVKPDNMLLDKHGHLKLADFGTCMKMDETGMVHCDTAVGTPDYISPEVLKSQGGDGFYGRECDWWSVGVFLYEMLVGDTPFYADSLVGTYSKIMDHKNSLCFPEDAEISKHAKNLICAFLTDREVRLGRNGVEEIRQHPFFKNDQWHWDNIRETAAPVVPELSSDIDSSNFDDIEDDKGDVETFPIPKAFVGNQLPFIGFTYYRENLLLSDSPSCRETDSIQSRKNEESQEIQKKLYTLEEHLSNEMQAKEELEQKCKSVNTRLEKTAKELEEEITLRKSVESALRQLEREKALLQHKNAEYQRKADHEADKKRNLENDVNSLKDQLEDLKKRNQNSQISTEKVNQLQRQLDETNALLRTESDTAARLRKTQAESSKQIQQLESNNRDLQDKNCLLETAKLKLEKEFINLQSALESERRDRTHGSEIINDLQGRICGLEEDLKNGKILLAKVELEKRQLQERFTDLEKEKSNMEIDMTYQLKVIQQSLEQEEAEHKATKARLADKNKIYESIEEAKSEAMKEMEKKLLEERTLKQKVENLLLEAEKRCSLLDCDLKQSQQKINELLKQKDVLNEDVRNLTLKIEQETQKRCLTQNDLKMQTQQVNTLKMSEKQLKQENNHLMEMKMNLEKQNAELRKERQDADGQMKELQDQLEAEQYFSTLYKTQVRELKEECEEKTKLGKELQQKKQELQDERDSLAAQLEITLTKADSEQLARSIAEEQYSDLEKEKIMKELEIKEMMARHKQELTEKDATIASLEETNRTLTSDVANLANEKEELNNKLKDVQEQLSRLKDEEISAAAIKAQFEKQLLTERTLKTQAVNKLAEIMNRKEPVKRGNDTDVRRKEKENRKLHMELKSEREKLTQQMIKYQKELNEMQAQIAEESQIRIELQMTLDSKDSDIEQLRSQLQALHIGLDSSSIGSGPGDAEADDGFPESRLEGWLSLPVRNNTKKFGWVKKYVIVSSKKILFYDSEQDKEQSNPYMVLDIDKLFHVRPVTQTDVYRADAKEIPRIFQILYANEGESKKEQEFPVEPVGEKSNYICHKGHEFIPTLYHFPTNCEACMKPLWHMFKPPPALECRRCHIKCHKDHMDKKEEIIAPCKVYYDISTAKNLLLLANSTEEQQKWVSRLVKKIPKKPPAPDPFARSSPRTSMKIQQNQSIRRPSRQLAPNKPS
In the case of `CS(=O)(=O)c1cccc(C(=O)N[C@H]2CC3(C2)C[C@H](Oc2ncccc2C(N)=O)C3)c1` (stereo partly drawn) [Example 109, 2-((aR)-6-(3-(methylsulfonyl)benzamido)spiro[3.3]heptan2-- yl)oxy)nicotinamide, trifluoroacetate], the IC50 is reported as 50 to 250 nM. Compound `CC(C)(C)c1ccnc(C(=O)N[C@H]2CC3(C2)C[C@H](Oc2ncccc2C(N)=O)C3)c1` (stereo partly drawn) [Example 110, 4-(tert-butyl)-N-((aR)-6-((3-carbamoylpyridin-2-yl)oxy)spiro[3.3]heptan-2-yl)picolinamide, bis-trifluoroacetate] has an IC50 of 5 to 50 nM. For `[2H]C([2H])([2H])n1cc(-c2ccc3c(C(=O)N[C@H]4CC5(C4)C[C@H](Oc4ncccc4C(N)=O)C5)nn(C(F)F)c3c2)cn1` (stereo partly shown) [Example 111, 1-(difluoromethyl)-6-[1-(^2H3)methyl-1H-pyrazol-4-yl]-N-[(4s)-6-[(3-carbamoylpyridin-2-yl)oxy]spiro[3.3]heptan-2-yl]-1H-indazole-3-carboxamide, trifluoroacetate], the IC50 was < 5 nM. In the case of `NC(=O)c1cccnc1O[C@H]1CC2(C[C@H](NC(=O)c3nn(C(F)F)c4cc(-c5cnn(C(F)F)c5)ccc34)C2)C1` (stereo partly drawn) [Example 112, N-((aR)-6-((3-carbamoylpyridin-2-yl)oxy)spiro[3.3]heptan-2-yl)-1-(difluoromethyl)-6-(1-(difluoromethyl)-1H-pyrazol-4-yl)-1H-indazole-3-caroxamide, trifluoroacettate], the IC50 is reported as < 5 nM. Work on `CC(C)(C)c1cc(C(=O)N[C@H]2CC3(C2)C[C@H](Oc2ncccc2C(N)=O)C3)n(CC(F)F)n1` (stereo partly drawn) [Example 113, 2-((aR)-6-(3-(tert-butyl)-1-(2,2-difluoroethyl)-1H-pyrazole-5-carboxamido)spiro[3.3]heptan-2-yl)oxy) nicotinamide, trifluoroacetate] yielded an IC50 of 250 to 2500 nM. Work on `CC(C)(C)c1cc(C(=O)N[C@H]2CC3(C2)C[C@H](Oc2ncccc2C(N)=O)C3)n(CCC(F)(F)F)n1` (stereo partly drawn) [Example 114, 2-((aR)-6-(3-(tert-butyl)-1-(3,3,3-trifluoropropyl)-1H-pyrazole-5-carboxamido)spiro [3.3]heptan-2-yl)oxy) nicotinamide, trifluoroacetate] yielded an IC50 of 250 to 2500 nM. With `NC(=O)c1cccnc1O[C@H]1CC2(C[C@H](NC(=O)c3cnn4c(CCC(F)(F)F)c(OCCC(F)(F)F)ccc34)C2)C1` (stereo partly drawn) [Example 115, N-((aR)-6-((3-carbamoylpyrdin-2-yl)oxy)spiro[3.3]heptan-2-yl)-6-(3,3,3-trifluoropropoxy)-7-(3,3,3-trifluoropropyl) pyrazolo[1,5-a]pyridine-3-carboxamdie, trifluoroacetate] the IC50 was 5 to 50 nM. Work on `NC(=O)c1cccnc1O[C@H]1CC2(C[C@H](NC(=O)c3cnn4cc(CCC(F)(F)F)ccc34)C2)C1` (stereo partly drawn) [Example 118, N-((aR)-6-((3-carbamoylpyridin-2-yl)oxy)spiro[3.3]heptan-2-yl)-6-(3,3,3-trifluoropropyl) pyrazolo[1,5-a[pyridine-3-carboxamide, trifluoroacetate] yielded an IC50 of 5 to 50 nM. `NC(=O)c1cccnc1O[C@H]1CC2(C[C@H](NC(=O)c3cnn4cc(OCCn5ccnc5)ccc34)C2)C1` (stereo partly drawn) [Example 120, 6-(2-(1H-imidazol-1-yl)ethoxy)-N-((aR)-6-((3-carbamoylpyridin-2-yl)oxy)spiro[3.3]heptan-2-yl)pyrazolo[1,5-a]pyridine-3-carboxamdie, trifluoroacetate] showed an IC50 of 5 to 50 nM. With `COCCOCCOc1ccc2c(C(=O)N[C@H]3CC4(C3)C[C@H](Oc3ncccc3C(N)=O)C4)cnn2c1` (stereo partly drawn) [Example 121, N-((aR)-6-((3-carbamoylpyridin-2-yl)oxy)spiro[3.3]heptan-2-yl)-6-(2-(2-methoxyethoxy)ethoxy)pyrazolo [1,5-a]pyridine-3-carboxamide, trifluoroacetate] the IC50 was 5 to 50 nM. `NC(=O)c1cccnc1O[C@H]1CC2(C[C@H](NC(=O)c3cnn4cc(OCCCC(F)(F)F)ccc34)C2)C1` (stereo partly drawn) [Example 122, N-((aR)-6-((3-carbamoylpyridin-2-yl)oxy)spiro[3.3]heptan-2-yl)-6-(4,4,4-trifluorobutoxy) pyrazolo[1,5-a]pyridine-3-carboxamide, trifluoroacetate] gave an IC50 of 5 to 50 nM. With `NC(=O)c1cccnc1O[C@H]1CC2(C[C@H](NC(=O)c3cnn4cc(OCCCN5CCCC5=O)ccc34)C2)C1` (stereo partly drawn) [Example 124, N-((aR)-6-((3-carbamoylpyridin-2-yl)oxy)spiro[3.3]heptan-2-yl)-6-(3-(2-oxopyrrolidin-1-yl)propoxy) pyrazolo[1,5-a]pyridine-3-carboxamide, trifluoroacetate] the IC50 was 5 to 50 nM. `NC(=O)c1cccnc1O[C@H]1CC2(C[C@H](NC(=O)c3cnn4cc(OCCOC(F)(F)F)ccc34)C2)C1` (stereo partly drawn) [Example 125, N-((aR)-6-((3-carbamoylpyridin-2-yl)oxy)spiro[3.3]heptan-2-yl)-6-(2-(trifluoromethoxy)ethoxy) pyrazolo[1,5-a] pyridine-3-carboxamide, t rifluoroacetate] showed an IC50 of 5 to 50 nM. With `NC(=O)c1cccnc1O[C@H]1CC2(C[C@H](NC(=O)c3cnn4cc(OCC[C@H]5COC(=O)N5)ccc34)C2)C1` (stereo partly drawn) [Example 126, N-((aR)-6-((3-carbamoylpyridin-2-yl)oxy)spiro[3.3]heptan-2-yl)-6-(2-((S)-2-oxoxazolidin-4-yl)ethoxy) pyrazolo[1,5-a]pyridine-3-carboxamdie, trifluoroacetate] the IC50 was < 5 nM. Compound `CC(C)(O)COc1ccc2c(C(=O)N[C@H]3CC4(C3)C[C@H](Oc3ncccc3C(N)=O)C4)nn(CC(C)(C)O)c2c1` (stereo partly drawn) [Example 127, N-((aR)-6-((3-carbamoylpyridin-2-yl)oxy)spiro[3.3]heptan-2-yl)-6-(2-hydroxy-2-methylpropoxy)-1-(2-hydroxy-2-methylpropyl)-1H-indazole-3-carboxamide, trifluoroacetate] has an IC50 of 5 to 50 nM. For `Cc1ncsc1CCOc1ccc2c(C(=O)N[C@H]3CC4(C3)C[C@H](Oc3ncccc3C(N)=O)C4)cnn2c1` (stereo partly drawn) [Example 128, N-((aR)-6-((3-carbamoylpyridin-2-yl)oxy)spiro[3.3]heptan-2-yl)-6-(2-(4-methylthiazol-5-yl)ethoxy) pyrazolo[1,5-a]pyridine-3-carboxamide, trifluoroacetate], the IC50 was 5 to 50 nM. `NC(=O)c1cccnc1O[C@H]1CC2(C[C@H](NC(=O)c3csc(-c4ccccn4)n3)C2)C1` (stereo partly drawn) [Example 130, N-((aR)-6-((3-carbamoylpyridin-2-yl)oxy)spiro [3.3]heptan-2-yl)-2-(pyridin-2-yl)thiazole-4-carboxamide, bis-trifluoroacetate] showed an IC50 of 250 to 2500 nM. With `CN(c1ccccc1)S(=O)(=O)c1cccc(C(=O)N[C@H]2CC3(C2)C[C@H](Oc2ncccc2C(N)=O)C3)c1` (stereo partly drawn) [Example 131, 2-(((aR)-6-(3-(N-methyl-N-phenylsulfamoyl)benzamido)spiro[3.3]heptan-2-yl)oxy) nicotinamide, trifluoroacetate] the IC50 was 5 to 50 nM. With `NC(=O)c1cccnc1O[C@H]1CC2(C[C@H](NC(=O)c3nn(Cc4ccccc4)c4ccccc34)C2)C1` (stereo partly drawn) [Example 132, 1-benzyl-N-((aR)-6-((3-carbamoylpyridin-2-yl)oxy)spiro[3.3]heptan-2-yl)-1H-indazole-3-carboxamide, trifluoroacetate] the IC50 was 5 to 50 nM. In the case of `NC(=O)c1cccnc1O[C@H]1CC2(C[C@H](NC(=O)c3cccc(-n4cccn4)c3)C2)C1` (stereo partly drawn) [Example 134, 2-(((aR)-6-(3-(1H-pyrazol-1-yl)benzamido)spiro[3.3]heptan-2-yl)oxy) nicotinamide, trifluoroacetate], the IC50 is reported as 50 to 250 nM. For `Cc1nc(-c2cccnc2)sc1C(=O)N[C@H]1CC2(C1)C[C@H](Oc1ncccc1C(N)=O)C2` (stereo partly drawn) [Example 135, N-((aR)-6-((3-carbamoylpyridin-2-yl)oxy)spiro [3.3]heptan-2-yl)-4-methyl-2-(pyridin-3-yl)thiazole-5-carboxamide, bis-trifluoroacetate], the IC50 was 250 to 2500 nM. Compound `COc1ccc(-c2nc(C(=O)N[C@H]3CC4(C3)C[C@H](Oc3ncccc3C(N)=O)C4)cs2)cc1` (stereo partly drawn) [Example 136, N-((aR)-6-((3-carbamoylpyridin-2-yl)oxy)spiro[3.3]heptan-2-yl)-2-(4-methoxyphenyl) thiazole-4-carboxamide, trifluoroacetate] has an IC50 of 250 to 2500 nM. For `CC(C)NS(=O)(=O)c1ccccc1C(=O)N[C@H]1CC2(C1)C[C@H](Oc1ncccc1C(N)=O)C2` (stereo partly drawn) [Example 138, 2-(((aR)-6-(2-(N-isopropylsulfamoyl)benzamido)spiro[3.3]heptan-2-yl)oxy)nicotinamide, trifluoroacetate], the IC50 was 250 to 2500 nM. Work on `NC(=O)c1cccnc1O[C@H]1CC2(C[C@H](NC(=O)c3c(C(F)(F)F)nc4ccc(Cl)cn34)C2)C1` (stereo partly drawn) [Example 139, N-((aR)-6-((3-carbamoylpyridin-2-yl)oxy)spiro[3.3]heptan-2-yl)-6-chloro-2-(trifluoromethyl) imidazo[1,2-a]pyridine-3-carboxamide, trifluoroacetate] yielded an IC50 of 250 to 2500 nM. For `NC(=O)c1cccnc1O[C@H]1CC2(C[C@H](NC(=O)c3ccccc3-c3nc4ccccc4[nH]3)C2)C1` (stereo partly drawn) [Example 140, 2-(((aR)-6-(2-(1H-benzo[d]imidazol-2-yl)benamido)spiro [3.3]heptan-2-yl)oxy) nicotinamide, trifluoroacetate], the IC50 was 250 to 2500 nM. In the case of `NC(=O)c1cccnc1O[C@H]1CC2(C[C@H](NC(=O)c3cccc(Cn4ccnc4)c3)C2)C1` (stereo partly drawn) [Example 141, 2-(((aR)-6-(3-((1H-imidazol-1-yl)methyl)benzamido)spiro[3.3]heptan-2-yl)oxy) nicotinamide, trifluoroacetate], the IC50 is reported as 250 to 2500 nM.

Same assay, conditions: read-out: ROCK2 Activity (ROCK2 IC50); 5 μM ATP, 1.5 μM peptide substrate, pH 7.5
`NC(=O)c1cccnc1OC1CC2(CC(NC(=O)c3nn(CCC(F)(F)F)c4cc(OCCC(F)(F)F)ccc34)C2)C1` [Example 117, N-((aR)-6-((3-carbamoylpyridin-2-yl)oxy)spiro[3.3]heptan-2-yl)-6-(3,3,3-trifluoropropoxy)-1-(3,3,3-trifluoropropyl)-1H-indazole-3-carboxamide, trifluoroacetate] showed an IC50 of 5 to 50 nM. `CS(=O)(=O)c1cc(Br)cc(C(=O)NC2CC3(C2)CC(Oc2ncccc2C(N)=O)C3)c1` [Example 119, 2-((aR)-6-(3-bromo-5-(methylsulfonyl)benzamido)spiro[3.3]heptan-2-yl)oxy) nicotinamide, trifluoroacetate] showed an IC50 of 5 to 50 nM.
